Measured values: patent publication US9725449B2, “Tricyclic compounds as anticancer agents” (BRISTOL-MYERS SQUIBB COMPANY, priority 2015, dated 2017)
pIC50: −log10 of the molar value.

Each compound was assayed against BRD4 (Homo sapiens, UniProt O60885) (assay: Time resolved fluorescence resonance energy transfer (TR-FRET) binding assay, bromodomain BRD4). Settings: FRET BRD4 IC50 (nM), one of the FRET assays described.

Structure (SMILES)	IC50
[2H]C([2H])([2H])c1nnn(C)c1-c1cnc2c3ccc(N4C5CCC4CC(O)C5)nc3n([C@H](c3ccccc3)C3CCOCC3)c2c1 (stereo partly drawn) [Example 183, 8-{5-[4-(^2H3)Methyl-1-methyl-1H-1,2,3-triazol-5-yl]-8-[(S)-oxan-4-yl(phenyl)methyl]-3,8,10-triazatricyclo[7.4.0.0^2,^7]trideca-1(9),2(7),3,5,10,12-hexaen-11-yl}-8-azabicyclo[3.2.1]octan-3-ol]	< 10 nM

Same assay, conditions: one of the FRET assays described; read-out: FRET BRD4 IC50

Structure (SMILES)	pIC50
Cc1nnn(C)c1-c1cnc2c3ccc(N4CCS(=O)(=O)C(C)C4)nc3n([C@H](c3ccccc3)C3CCOCC3)c2c1 (single isomer, unassigned; diastereomer b) [Example 218]	> 9.00
Cc1nnn(C)c1-c1cnc2c3ccc(N4CCS(=O)(=O)CC(C)C4)nc3n([C@H](c3ccccc3)C3CCOCC3)c2c1 (stereo partly drawn) [Example 211, 4-[5-(Dimethyl-1H-1,2,3-triazol-5-yl)-8-[(S)-oxan-4-yl(phenyl)methyl]-3,8,10-triazatricyclo[7.4.0.0^2,^7]trideca-1(9),2(7),3,5,10,12-hexaen-11-yl]-6-methyl-1λ^6,4-thiazepane-1,1-dione]	> 8.00
Cc1nnn(C)c1-c1cnc2c3ccc(N4CCN(C)CC4)nc3n([C@H](c3ccccc3F)C3CCOCC3)c2c1 [Example 231, 5-(Dimethyl-1H-1,2,3-triazol-5-yl)-8-[(S)-(2-fluorophenyl)(oxan-4-yl)methyl]-11-(4-methylpiperazin-1-yl)-3,8,10-triazatricyclo[7.4.0.0^2,^7]trideca-1(13),2(7),3,5,9,11-hexaene]	> 8.00
Cc1nnn(C)c1-c1cnc2c3c(O)nc(C(C)(C)O)cc3n([C@@H](c3ncccc3F)C3CCOCC3)c2c1 [Example 312, 8-[(R)-(3-Fluoropyridin-2-yl)(oxan-4-yl)methyl]-11-(2-hydroxypropan-2-yl)-5-[4-(^2H3)methyl-1-methyl-1H-1,2,3-triazol-5-yl]-3,8,12-triazatricyclo[7.4.0.0^2,^7]trideca-1(9),2(7),3,5,10,12-hexaen-13-ol]	> 8.00
[2H]C([2H])([2H])c1nnn(C)c1-c1cnc2c3ccc(N4CCN(C(C)(C)C)CC4)nc3n([C@H](c3ccccc3)C3CCOCC3)c2c1 [Example 152, 11-(4-tert-Butylpiperazin-1-yl)-5-[4-(^2H3)methyl-1-methyl-1H-1,2,3-triazol-5-yl]-8-[(S)-oxan-4-yl(phenyl)methyl]-3,8,10-triazatricyclo[7.4.0.0^2,^7]trideca-1(9),2(7),3,5,10,12-hexaene]	> 8.00
[2H]C([2H])([2H])c1nnn(C)c1-c1cnc2c3c(NCC(F)(F)F)ncc(S(C)(=O)=O)c3n([C@H](c3ncccc3F)C3CCOCC3)c2c1 [Example 341, 8-[(S)-(3-Fluoropyridin-2-yl)(oxan-4-yl)methyl]-10-methanesulfonyl-5-[4-(^2H3)methyl-1-methyl-1H-1,2,3-triazol-5-yl]-N-(2,2,2-trifluoroethyl)-3,8,12-triazatricyclo[7.4.0.0^2,^7]trideca-1(13),2(7),3,5,9,11-hexaen-13-amine]	> 9.00
Cc1nnn(C)c1-c1cnc2c3ccc(N4CCC(C(=O)N(C)C)CC4)nc3n([C@H](c3ccccc3F)C3CCOCC3)c2c1 [Example 271, 1-[5-(Dimethyl-1H-1,2,3-triazol-5-yl)-8-[(S)-(2-fluorophenyl)(oxan-4-yl)methyl]-3,8,10-triazatricyclo[7.4.0.0^2,^7]trideca-1(13),2(7),3,5,9,11-hexaen-11-yl]-N,N-dimethylpiperidine-4-carboxamide]	> 8.00
Cc1noc(C)c1-c1cc2c(cn1)c1ncc(C(C)(C)O)cc1n2[C@H](c1ccccc1)C1CCOCC1 [Example 369]	> 8.00
[2H]C([2H])([2H])c1nnn(C)c1-c1cnc2c3c(OC)ncc(S(C)(=O)=O)c3n([C@H](c3ccccc3F)C3CCOCC3)c2c1 [Example 51, 8-[(S)-(2-Fluorophenyl)(oxan-4-yl)methyl]-10-methanesulfonyl-13-methoxy-5-[4-(^2H3)methyl-1-methyl-1H-1,2,3-triazol-5-yl]-3,8,12-triazatricyclo[7.4.0.0^2,^7]trideca-1(13),2(7),3,5,9,11-hexaene]	> 9.00
COc1nccc2c3ncc(-c4c(C)nnn4C)cc3n(C(c3cccc(F)c3F)C3CCOCC3)c12 (single isomer, unassigned) [Example 23, 8-[(2,3-Difluorophenyl)(oxan-4-yl)methyl]-5-(dimethyl-1H-1,2,3-triazol-5-yl)-10-methoxy-3,8,11-triazatricyclo[7.4.0.0^2,^7]trideca-1(13),2(7),3,5,9,11-hexaene]	> 5.82
[2H]C([2H])([2H])c1nnn(C)c1-c1cc2c(cn1)c1ncc(C(C)(C)O)cc1n2C(c1ncccc1F)C1CCOCC1 (single isomer, unassigned) [Example 367]	> 8.00
Cc1nnn(C)c1-c1cnc2c3cncc(Cl)c3n([C@H](c3ccccc3)C3CCOCC3)c2c1 [Example 34, 10-Chloro-5-(dimethyl-1H-1,2,3-triazol-5-yl)-8-[(S)-oxan-4-yl(phenyl)methyl]-3,8,12-triazatricyclo[7.4.0.0^2,^7]trideca-1(13),2(7),3,5,9,11-hexaene]	> 8.00
COc1nnn(C)c1-c1cnc2c3cnc(N4C[C@@H](C)S(=O)(=O)[C@H](C)C4)nc3n([C@H](c3ccccc3)C3CCOCC3)c2c1 [Example 158, (2R,6R)-4-[5-(4-Methoxy-1-methyl-1H-1,2,3-triazol-5-yl)-8-[(S)-oxan-4-yl(phenyl)methyl]-3,8,10,12-tetraazatricyclo[7.4.0.0^2,^7]trideca-1(9),2(7),3,5,10,12-hexaen-11-yl]-2,6-dimethyl-1λ^6,4-thiomorpholine-1,1-dione]	> 8.00
Cc1noc(C)c1-c1ccc2c3ncc(-c4c(C)nnn4C)cc3n([C@H](c3ccccc3)C3CCOCC3)c2n1 [Example 147, 11-(Dimethyl-1,2-oxazol-4-yl)-5-(dimethyl-1H-1,2,3-triazol-5-yl)-8-[(S)-oxan-4-yl(phenyl)methyl]-3,8,10-triazatricyclo[7.4.0.0^2,^7]trideca-1(13),2(7),3,5,9,11-hexaene]	> 8.00
[2H]C([2H])([2H])c1nnn(C)c1-c1cnc2c3c(OC)nc(C(C)(C)O)cc3n(C(c3ccccc3)C3CCC(F)(F)CC3)c2c1 (stereo not shown) [Example 345, 2-{8-[(4,4-Difluorocyclohexyl)(phenyl)methyl]-13-methoxy-5-[4-(^2H3)methyl-1-methyl-1H-1,2,3-triazol-5-yl]-3,8,12-triazatricyclo[7.4.0.0^2,^7]trideca-1(13),2(7),3,5,9,11-hexaen-11-yl}propan-2-ol]	> 9.00
[2H]C([2H])([2H])c1nnn(C)c1-c1cnc2c3ccc(C(C)=O)nc3n([C@H](c3ccccc3)C3CCOCC3)c2c1 [Example 202, 1-{5-[4-(^2H3)Methyl-1-methyl-1H-1,2,3-triazol-5-yl]-8-[(S)-oxan-4-yl(phenyl)methyl]-3,8,10-triazatricyclo[7.4.0.0^2,^7]trideca-1(9),2(7),3,5,10,12-hexaen-11-yl}ethan-1-one]	> 8.00
COc1nccc2c3ncc(-c4c(C)nnn4C)cc3n(C(c3c(F)cc(F)cc3F)C3CCOCC3)c12 (racemic) [Example 24, 5-(Dimethyl-1H-1,2,3-triazol-5-yl)-10-methoxy-8-[oxan-4-yl(2,4,6-trifluorophenyl)methyl]-3,8,11-triazatricyclo[7.4.0.0^2,^7]trideca-1(13),2(7),3,5,9,11-hexaene]	> 8.00
[2H]C([2H])([2H])c1nnn(C)c1-c1cnc2c3cnc(Cl)cc3n(C(c3ncccc3F)C3CCOCC3)c2c1 (single isomer, unassigned) [Example 321]	> 8.00
[2H]C([2H])([2H])c1nnn(C)c1-c1cnc2c3cncc(C(C)(C)O)c3n([C@H](c3ccccc3)C3CCOCC3)c2c1 [Example 291, 2-{5-[4-(^2H3)Methyl-1-methyl-1H-1,2,3-triazol-5-yl]-8-[(S)-oxan-4-yl(phenyl)methyl]-3,8,12-triazatricyclo[7.4.0.0^2,^7]trideca-1(9),2,4,6,10,12-hexaen-10-yl}propan-2-ol]	> 9.00
COc1ncc(S(C)(=O)=O)c2c1c1ncc(-c3c(C)nnn3C)cc1n2[C@H](c1ccccc1)C1CCOCC1 [Example 46, 5-(Dimethyl-1H-1,2,3-triazol-5-yl)-10-methanesulfonyl-13-methoxy-8-[(S)-oxan-4-yl(phenyl)methyl]-3,8,12-triazatricyclo[7.4.0.0^2,^7]trideca-1(13),2(7),3,5,9,11-hexaene]	> 8.00
[2H]C([2H])([2H])c1nnn(C)c1-c1cnc2c3ccc(Cl)nc3n(C(c3ncccc3F)C3CCOCC3)c2c1 (stereo not shown) [Example 246, 11-Chloro-8-[(3-fluoropyridin-2-yl)(oxan-4-yl)methyl]-5-[4-(^2H3)methyl-1-methyl-1H-1,2,3-triazol-5-yl]-3,8,10-triazatricyclo[7.4.0.0^2,^7]trideca-1(13),2(7),3,5,9,11-hexaene]	> 8.00
[2H]C([2H])([2H])c1nnn(C)c1-c1cnc2c3c(OC(C)C)ncc(S(C)(=O)=O)c3n(C(c3ncccc3F)C3CCOCC3)c2c1 (stereo not shown) [Example 71, 8-[(3-Fluoropyridin-2-yl)(oxan-4-yl)methyl]-10-methanesulfonyl-5-[4-(^2H3)methyl-1-methyl-1H-1,2,3-triazol-5-yl]-13-(propan-2-yloxy)-3,8,12-triazatricyclo[7.4.0.0^2,^7]trideca-1(13),2(7),3,5,9,11-hexaene]	> 5.82
[2H]C([2H])([2H])c1nnn(C)c1-c1cnc2c3c(N[C@@H](C)C4CC4)ncc(S(C)(=O)=O)c3n([C@H](c3ccccc3)C3CCOCC3)c2c1 [Example 113, N-[(1S)-1-Cyclopropylethyl]-10-methanesulfonyl-5-[4-(^2H3)methyl-1-methyl-1H-1,2,3-triazol-5-yl]-8-[(S)-oxan-4-yl(phenyl)methyl]-3,8,12-triazatricyclo[7.4.0.0^2,^7]trideca-1(13),2(7),3,5,9,11-hexaen-13-amine]	> 9.00
C=C(OCC)c1cc2c(cn1)c1ncc(-c3c(C)noc3C)cc1n2[C@H](c1ccc(F)cc1)C1CCOCC1 [Example 329, 5-(Dimethyl-1,2-oxazol-4-yl)-11-(1-ethoxyethenyl)-8-[(S)-(4-fluorophenyl)(oxan-4-yl)methyl]-3,8,12-triazatricyclo[7.4.0.0^2,^7]trideca-1(9),2(7),3,5,10,12-hexaene]	> 8.00
